Test results from ChEMBL document CHEMBL1149344, “Discovery of aminoquinazolines as potent, orally bioavailable inhibitors of Lck: synthesis, SAR, and in vivo anti-inflammatory activity” (J Med Chem, 2006).
Converted amounts (≈) assume the structure as drawn.

Key:
[1] = biological target: Mitogen-activated protein kinase 14 (Homo sapiens, UniProt Q16539); assay: Inhibition of p38-alpha by HTRF kinase assay
[2] = biological target: Mitogen-activated protein kinase 10 (Homo sapiens, UniProt P53779); assay: Inhibition of JNK3 by HTRF kinase assay
Mus musculus [3] = assay: Inhibition of anti CD3-induced IL2 production in BALB/c mouse at 100 mg/kg, po relative to control; type: functional
Homo sapiens [4] = organism: Homo sapiens; assay: Inhibition of anti CD3-induced IL2 production in human whole blood; type: functional
T-cell [5] = assay: Inhibition of human T cell proliferation by mixed lymphocyte reaction
[6] = biological target: Non-receptor tyrosine-protein kinase TYK2 (Homo sapiens, UniProt P29597); assay: Inhibition of Tyk2 by HTRF kinase assay
[7] = Clearance in Sprague-Dawley rat at 1 mg/kg, iv; type: ADME, organism-based; parameters: dose 1 mg/kg, route intravenous; details: in vivo
[8] = biological target: Tyrosine-protein kinase ITK/TSK (Homo sapiens, UniProt Q08881); assay: Inhibition of Itk by HTRF kinase assay
[9] = biological target: Ribosomal protein S6 kinase alpha-5 (Homo sapiens, UniProt O75582); assay: Inhibition of MSK1 by HTRF kinase assay
T-cell [10] = assay: Inhibition of anti CD3/CD28-induced IL2 secretion in human T cells; type: functional, cell-based
[11] = biological target: Proto-oncogene tyrosine-protein kinase Src (Homo sapiens, UniProt P12931); assay: Inhibition of Src by HTRF kinase assay
[12] = biological target: T1, Tyrosine-protein kinase JAK3 (Homo sapiens, UniProt P52333); assay: Inhibition of Jak3 by HTRF kinase assay
T1 sequence (P52333 whole entry): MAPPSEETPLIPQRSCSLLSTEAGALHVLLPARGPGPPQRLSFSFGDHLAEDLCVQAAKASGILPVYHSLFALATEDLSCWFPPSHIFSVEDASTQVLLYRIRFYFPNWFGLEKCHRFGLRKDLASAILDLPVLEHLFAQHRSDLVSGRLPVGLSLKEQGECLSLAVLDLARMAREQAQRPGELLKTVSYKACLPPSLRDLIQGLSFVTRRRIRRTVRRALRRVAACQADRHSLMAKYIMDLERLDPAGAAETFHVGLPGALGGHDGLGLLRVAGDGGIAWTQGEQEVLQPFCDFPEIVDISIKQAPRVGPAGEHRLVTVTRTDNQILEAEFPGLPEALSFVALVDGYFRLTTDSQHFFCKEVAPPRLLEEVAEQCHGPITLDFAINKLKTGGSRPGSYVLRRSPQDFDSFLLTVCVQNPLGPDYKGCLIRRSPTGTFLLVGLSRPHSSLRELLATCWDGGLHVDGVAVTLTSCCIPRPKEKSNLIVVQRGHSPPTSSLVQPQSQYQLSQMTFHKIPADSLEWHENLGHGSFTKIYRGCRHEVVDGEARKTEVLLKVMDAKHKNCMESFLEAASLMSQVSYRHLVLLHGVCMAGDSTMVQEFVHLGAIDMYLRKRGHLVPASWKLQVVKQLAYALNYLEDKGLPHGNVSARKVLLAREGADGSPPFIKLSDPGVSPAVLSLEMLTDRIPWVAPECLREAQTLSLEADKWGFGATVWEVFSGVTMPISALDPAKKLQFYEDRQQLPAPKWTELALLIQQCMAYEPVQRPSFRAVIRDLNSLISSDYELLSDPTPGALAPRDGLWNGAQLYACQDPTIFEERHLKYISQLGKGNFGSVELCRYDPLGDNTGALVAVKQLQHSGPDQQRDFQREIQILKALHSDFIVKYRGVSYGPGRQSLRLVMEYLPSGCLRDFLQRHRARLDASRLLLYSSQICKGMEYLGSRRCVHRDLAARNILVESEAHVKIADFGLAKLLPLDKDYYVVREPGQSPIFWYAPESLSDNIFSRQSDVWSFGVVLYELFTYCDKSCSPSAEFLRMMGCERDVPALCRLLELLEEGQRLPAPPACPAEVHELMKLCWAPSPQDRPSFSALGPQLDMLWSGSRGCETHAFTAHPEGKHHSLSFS

[13] = Cmax in Sprague-Dawley rat at 5 mg/kg, po; type: ADME, organism-based; parameters: dose 5 mg/kg, route oral; details: in vivo
[14] = biological target: RAC-alpha serine/threonine-protein kinase (Homo sapiens, UniProt P31749); assay: Inhibition of PKBalpha by HTRF kinase assay
[15] = biological target: Tyrosine-protein kinase ZAP-70 (Homo sapiens, UniProt P43403); assay: Inhibition of Zap70 by HTRF kinase assay
[16] = biological target: Cyclin-dependent kinase 5 (Homo sapiens, UniProt Q00535); assay: Inhibition of CDK5 by HTRF kinase assay
[17] = biological target: Serine/threonine-protein kinase PAK 2 (Homo sapiens, UniProt Q13177); assay: Inhibition of Pak2 by HTRF kinase assay
[18] = Protein binding in mouse plasma; type: ADME; details: read-out: PPB (converted)
Mus musculus [19] = assay: Mean terminal plasma concentration in BALB/c mouse at 11 mg/kg, po after […]; type: ADME, organism-based; parameters: dose 11 mg/kg, route oral
[20] = Bioavailability in Sprague-Dawley rat at 5 mg/kg, po; type: ADME, organism-based; details: in vivo
[21] = Tmax in Sprague-Dawley rat at 5 mg/kg, po; type: ADME, organism-based; parameters: dose 5 mg/kg, route oral; details: in vivo
Mus musculus [22] = assay: Inhibition of anti CD3-induced IL2 production in BALB/c mouse at 10 mg/kg, po relative to control; type: functional
[23] = AUC (0-infinity) in Sprague-Dawley rat at 5 mg/kg, po; type: ADME, organism-based; parameters: time infinity, dose 5 mg/kg, route oral; details: plasma
Homo sapiens [24] = organism: Homo sapiens; assay: Inhibition of […] TNF alpha production in human whole blood; type: functional
[25] = Half life in Sprague-Dawley rat at 1 mg/kg, iv; type: ADME, organism-based; parameters: dose 1 mg/kg, route intravenous; details: in vivo
[26] = biological target: Mitogen-activated protein kinase 8 (Homo sapiens, UniProt P45983); assay: Inhibition of JNK1 by HTRF kinase assay
[27] = Solubility in fasted state simulated intestinal fluid at pH 6.8; type: physicochemical; details: read-out: Solubility
Mus musculus [28] = assay: Unbound plasma concentration in po dosed BALB/c mouse; type: ADME, organism-based
[29] = biological target: Mitogen-activated protein kinase 9 (Homo sapiens, UniProt P45984); assay: Inhibition of JNK2 by HTRF kinase assay
[30] = biological target: Tyrosine-protein kinase SYK (Homo sapiens, UniProt P43405); assay: Inhibition of Syk by HTRF kinase assay
[31] = Volume of distribution in Sprague-Dawley rat at 1 mg/kg, iv; type: ADME, organism-based; parameters: dose 1 mg/kg, route intravenous; details: in vivo, read-out: Vss
Mus musculus [32] = assay: Inhibition of anti CD3-induced IL2 production in BALB/c mouse at 30 mg/kg, po relative to control; type: functional
[33] = biological target: Tyrosine-protein kinase Lck (Homo sapiens, UniProt P06239)
Description: Inhibition of Lck by HTRF kinase assay

[34] = Tmax in Sprague-Dawley rat at 2 mg/kg, po; type: ADME, organism-based; parameters: dose 2 mg/kg, route oral; details: in vivo
[35] = Clearance in Sprague-Dawley rat at 5 mg/kg, iv; type: ADME, organism-based; parameters: dose 5 mg/kg, route intravenous; details: in vivo
[36] = Bioavailability in Sprague-Dawley rat at 2 mg/kg, po; type: ADME, organism-based; details: in vivo
[37] = AUC (0-infinity) in Sprague-Dawley rat at 2 mg/kg, po; type: ADME, organism-based; parameters: time infinity, dose 2 mg/kg, route oral; details: plasma
[38] = Cmax in Sprague-Dawley rat at 2 mg/kg, po; type: ADME, organism-based; parameters: dose 2 mg/kg, route oral; details: in vivo
[39] = Half life in Sprague-Dawley rat at 5 mg/kg, iv; type: ADME, organism-based; parameters: dose 5 mg/kg, route intravenous; details: in vivo
Mus musculus [40] = assay: Mean terminal plasma concentration in BALB/c mouse at 22 mg/kg, po after […]; type: ADME, organism-based; parameters: dose 22 mg/kg, route oral
[41] = biological target: Vascular endothelial growth factor receptor 2 (Homo sapiens, UniProt P35968); assay: Inhibition of KDR by HTRF kinase assay
[42] = Volume of distribution in Sprague-Dawley rat at 5 mg/kg, iv; type: ADME, organism-based; parameters: dose 5 mg/kg, route intravenous; details: in vivo, read-out: Vss
[43] = biological target: Tyrosine-protein kinase BTK (Homo sapiens, UniProt Q06187); assay: Inhibition of Btk by HTRF kinase assay
[44] = biological target: cAMP-dependent protein kinase catalytic subunit beta (Homo sapiens, UniProt P22694); assay: Inhibition of PKAbeta by HTRF kinase assay

Chain of Mitogen-activated protein kinase 14 (Q16539 whole entry): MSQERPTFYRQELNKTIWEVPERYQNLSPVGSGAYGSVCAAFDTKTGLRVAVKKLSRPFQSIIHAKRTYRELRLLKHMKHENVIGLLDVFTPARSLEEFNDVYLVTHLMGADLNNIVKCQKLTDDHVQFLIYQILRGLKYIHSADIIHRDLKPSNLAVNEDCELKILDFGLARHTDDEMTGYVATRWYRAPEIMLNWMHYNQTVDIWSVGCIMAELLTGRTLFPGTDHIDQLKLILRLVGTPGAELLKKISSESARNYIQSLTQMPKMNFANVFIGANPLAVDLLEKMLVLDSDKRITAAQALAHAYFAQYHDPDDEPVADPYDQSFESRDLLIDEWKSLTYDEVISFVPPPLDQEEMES
Chain of Mitogen-activated protein kinase 8 (P45983 whole entry): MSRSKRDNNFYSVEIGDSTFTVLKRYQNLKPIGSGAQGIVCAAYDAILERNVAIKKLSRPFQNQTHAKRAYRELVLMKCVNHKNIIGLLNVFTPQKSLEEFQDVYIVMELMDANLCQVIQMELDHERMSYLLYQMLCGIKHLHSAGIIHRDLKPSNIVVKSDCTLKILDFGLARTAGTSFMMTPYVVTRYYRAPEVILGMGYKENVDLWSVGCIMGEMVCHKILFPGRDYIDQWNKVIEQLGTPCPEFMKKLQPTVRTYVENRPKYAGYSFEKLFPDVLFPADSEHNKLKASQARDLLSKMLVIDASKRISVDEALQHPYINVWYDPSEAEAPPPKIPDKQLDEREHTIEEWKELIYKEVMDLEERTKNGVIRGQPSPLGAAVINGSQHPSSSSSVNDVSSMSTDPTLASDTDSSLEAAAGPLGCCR
Chain of Mitogen-activated protein kinase 10 (P53779 whole entry): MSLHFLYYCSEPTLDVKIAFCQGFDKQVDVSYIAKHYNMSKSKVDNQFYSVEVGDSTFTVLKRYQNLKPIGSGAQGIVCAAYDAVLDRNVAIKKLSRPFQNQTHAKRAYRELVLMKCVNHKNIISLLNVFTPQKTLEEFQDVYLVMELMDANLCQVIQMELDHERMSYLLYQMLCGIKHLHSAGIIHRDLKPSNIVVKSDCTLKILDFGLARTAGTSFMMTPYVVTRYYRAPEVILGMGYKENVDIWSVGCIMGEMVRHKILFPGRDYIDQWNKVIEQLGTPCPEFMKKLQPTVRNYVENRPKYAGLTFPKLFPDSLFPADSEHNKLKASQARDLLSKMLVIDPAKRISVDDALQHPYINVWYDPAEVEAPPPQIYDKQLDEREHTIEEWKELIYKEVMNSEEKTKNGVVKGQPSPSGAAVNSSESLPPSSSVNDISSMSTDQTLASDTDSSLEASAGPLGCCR
Chain of Non-receptor tyrosine-protein kinase TYK2 (P29597 whole entry): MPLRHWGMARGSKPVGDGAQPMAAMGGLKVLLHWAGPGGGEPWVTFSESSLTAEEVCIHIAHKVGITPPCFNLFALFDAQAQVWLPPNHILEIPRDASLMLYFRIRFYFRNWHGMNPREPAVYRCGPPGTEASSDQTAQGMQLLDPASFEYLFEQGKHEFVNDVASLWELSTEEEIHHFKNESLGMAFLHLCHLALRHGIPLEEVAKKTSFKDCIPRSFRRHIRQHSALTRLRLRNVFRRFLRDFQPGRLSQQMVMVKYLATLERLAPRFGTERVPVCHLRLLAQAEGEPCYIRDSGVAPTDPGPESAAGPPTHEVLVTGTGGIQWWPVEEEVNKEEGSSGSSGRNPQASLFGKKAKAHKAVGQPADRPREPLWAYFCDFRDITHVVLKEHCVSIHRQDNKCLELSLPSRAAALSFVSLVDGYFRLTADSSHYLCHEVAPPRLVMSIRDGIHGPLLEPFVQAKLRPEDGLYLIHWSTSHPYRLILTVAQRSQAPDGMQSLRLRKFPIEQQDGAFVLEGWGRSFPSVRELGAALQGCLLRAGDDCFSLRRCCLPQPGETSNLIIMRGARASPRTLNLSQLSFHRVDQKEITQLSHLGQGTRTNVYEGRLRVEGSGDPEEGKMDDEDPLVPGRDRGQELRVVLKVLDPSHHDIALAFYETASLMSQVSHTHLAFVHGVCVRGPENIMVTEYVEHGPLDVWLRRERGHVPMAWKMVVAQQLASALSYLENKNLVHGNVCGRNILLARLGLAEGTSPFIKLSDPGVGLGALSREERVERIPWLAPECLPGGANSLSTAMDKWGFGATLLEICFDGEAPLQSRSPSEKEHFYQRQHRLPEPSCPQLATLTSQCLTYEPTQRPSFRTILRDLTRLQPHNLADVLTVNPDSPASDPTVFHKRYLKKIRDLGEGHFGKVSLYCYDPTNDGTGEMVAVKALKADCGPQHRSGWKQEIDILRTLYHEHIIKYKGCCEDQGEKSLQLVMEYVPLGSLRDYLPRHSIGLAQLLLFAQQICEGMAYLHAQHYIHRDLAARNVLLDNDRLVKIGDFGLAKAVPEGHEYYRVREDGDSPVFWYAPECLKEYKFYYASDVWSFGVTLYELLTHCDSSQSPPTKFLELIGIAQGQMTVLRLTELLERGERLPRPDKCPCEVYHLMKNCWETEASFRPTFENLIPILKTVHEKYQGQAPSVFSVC
Chain of Proto-oncogene tyrosine-protein kinase Src (P12931 2-536 limits assumed): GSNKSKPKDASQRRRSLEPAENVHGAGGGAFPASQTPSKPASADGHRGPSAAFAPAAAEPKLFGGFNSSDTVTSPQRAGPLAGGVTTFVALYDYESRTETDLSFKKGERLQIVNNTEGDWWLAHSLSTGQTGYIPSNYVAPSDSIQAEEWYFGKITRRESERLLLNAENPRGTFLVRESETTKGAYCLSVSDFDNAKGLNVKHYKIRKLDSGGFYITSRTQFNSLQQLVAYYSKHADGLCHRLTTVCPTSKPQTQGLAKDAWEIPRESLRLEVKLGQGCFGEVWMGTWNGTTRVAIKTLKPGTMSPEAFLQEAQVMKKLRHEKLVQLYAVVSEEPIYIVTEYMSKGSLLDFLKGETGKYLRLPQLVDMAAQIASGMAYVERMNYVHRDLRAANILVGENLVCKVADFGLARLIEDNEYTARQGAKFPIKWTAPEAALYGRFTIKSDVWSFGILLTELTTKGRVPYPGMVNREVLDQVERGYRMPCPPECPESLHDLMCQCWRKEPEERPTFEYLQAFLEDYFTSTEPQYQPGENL
Chain of Tyrosine-protein kinase ZAP-70 (P43403 whole entry): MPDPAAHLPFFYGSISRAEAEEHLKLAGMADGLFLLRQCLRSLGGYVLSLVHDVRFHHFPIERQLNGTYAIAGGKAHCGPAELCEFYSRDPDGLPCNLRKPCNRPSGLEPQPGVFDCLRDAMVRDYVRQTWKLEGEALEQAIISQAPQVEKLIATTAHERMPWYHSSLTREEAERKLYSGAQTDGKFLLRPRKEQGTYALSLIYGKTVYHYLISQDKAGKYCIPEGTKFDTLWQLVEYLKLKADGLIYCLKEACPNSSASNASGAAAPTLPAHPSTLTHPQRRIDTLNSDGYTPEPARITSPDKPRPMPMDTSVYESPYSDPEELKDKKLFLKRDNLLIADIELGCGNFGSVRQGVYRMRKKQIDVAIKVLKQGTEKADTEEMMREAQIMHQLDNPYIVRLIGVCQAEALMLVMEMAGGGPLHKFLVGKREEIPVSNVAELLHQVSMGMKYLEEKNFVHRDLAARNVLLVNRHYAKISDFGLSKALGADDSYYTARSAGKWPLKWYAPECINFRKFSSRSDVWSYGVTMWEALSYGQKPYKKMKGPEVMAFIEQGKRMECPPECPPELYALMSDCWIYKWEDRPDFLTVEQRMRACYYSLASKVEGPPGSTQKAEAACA
Chain of Cyclin-dependent kinase 5 (Q00535 whole entry): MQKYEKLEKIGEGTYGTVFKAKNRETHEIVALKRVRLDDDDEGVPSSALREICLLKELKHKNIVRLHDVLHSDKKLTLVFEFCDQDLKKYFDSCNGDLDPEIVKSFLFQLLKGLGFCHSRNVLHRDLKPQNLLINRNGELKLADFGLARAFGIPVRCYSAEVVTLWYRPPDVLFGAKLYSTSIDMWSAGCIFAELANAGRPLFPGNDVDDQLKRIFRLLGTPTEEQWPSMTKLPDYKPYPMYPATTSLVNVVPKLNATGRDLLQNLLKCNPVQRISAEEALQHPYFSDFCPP
Chain of Tyrosine-protein kinase ITK/TSK (Q08881 whole entry): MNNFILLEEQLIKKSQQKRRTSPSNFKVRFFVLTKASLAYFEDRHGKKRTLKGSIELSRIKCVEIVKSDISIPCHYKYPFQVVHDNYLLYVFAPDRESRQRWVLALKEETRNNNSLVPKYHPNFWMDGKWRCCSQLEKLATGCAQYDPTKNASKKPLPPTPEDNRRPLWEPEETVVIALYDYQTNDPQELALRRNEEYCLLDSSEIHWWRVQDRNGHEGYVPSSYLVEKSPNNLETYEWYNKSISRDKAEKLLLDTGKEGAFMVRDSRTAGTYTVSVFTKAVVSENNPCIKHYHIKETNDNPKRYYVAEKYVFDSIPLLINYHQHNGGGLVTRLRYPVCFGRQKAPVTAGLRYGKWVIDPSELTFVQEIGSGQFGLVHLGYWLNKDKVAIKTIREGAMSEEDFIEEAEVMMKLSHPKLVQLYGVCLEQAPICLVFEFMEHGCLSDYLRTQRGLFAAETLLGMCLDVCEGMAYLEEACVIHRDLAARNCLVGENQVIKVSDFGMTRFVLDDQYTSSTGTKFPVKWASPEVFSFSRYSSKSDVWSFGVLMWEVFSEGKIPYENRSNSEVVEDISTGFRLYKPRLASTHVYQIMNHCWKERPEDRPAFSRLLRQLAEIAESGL
Chain of Mitogen-activated protein kinase 9 (P45984 whole entry): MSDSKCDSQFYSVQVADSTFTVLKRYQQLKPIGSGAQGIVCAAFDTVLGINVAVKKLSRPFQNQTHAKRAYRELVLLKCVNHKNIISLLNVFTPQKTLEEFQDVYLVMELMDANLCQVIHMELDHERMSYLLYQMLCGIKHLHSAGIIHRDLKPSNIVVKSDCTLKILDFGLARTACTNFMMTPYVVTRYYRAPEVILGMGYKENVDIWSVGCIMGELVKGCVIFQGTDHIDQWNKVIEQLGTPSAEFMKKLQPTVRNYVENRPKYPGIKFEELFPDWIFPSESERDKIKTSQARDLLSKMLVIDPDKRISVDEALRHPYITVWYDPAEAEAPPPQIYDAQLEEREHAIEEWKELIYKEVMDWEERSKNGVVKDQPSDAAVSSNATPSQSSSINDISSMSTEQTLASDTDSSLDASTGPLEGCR

| SMILES | IC50 [1] | IC50 [2] | inhibition in vivo at 100 mg/kg (Mus musculus [3]) | Activity (Homo sapiens [4]) | IC50 (T-cell [5]) | IC50 [6] | IC50 [8] | IC50 [9] | IC50 (T-cell [10]) | IC50 [11] | IC50 [12] | IC50 [14] | IC50 [15] | IC50 [16] | IC50 [17] | inhibition in vivo at 10 mg/kg (Mus musculus [22]) | Activity (Homo sapiens [24]) | IC50 [26] | IC50 [29] | IC50 [30] | other results |
| --- | --- | --- | --- | --- | --- | --- | --- | --- | --- | --- | --- | --- | --- | --- | --- | --- | --- | --- | --- | --- | --- |
| Cc1ccc(C(=O)Nc2cccc(C(F)(F)F)c2)cc1-c1ccc2nc(NCCN3CCOCC3)ncc2c1 | 0.003 µM | 0.145 µM | 91% | 0.272 µM | 0.03 µM | 1.83 µM | > 25 µM | > 25 µM | 0.021 µM | 0.002 µM | 0.072 µM | > 25 µM | > 25 µM | > 25 µM | > 25 µM | 49% | >2.5 µM | 0.389 µM | 0.173 µM | 0.292 µM | clearance [7]: 2.88 L/h/kg; Cmax [13]: 0.128 µg/mL; fraction unbound [18]: 0.029; EC50 (Mus musculus [19]): 0.63 µM; bioavailability [20]: 38%; Tmax [21]: 3 h; AUC(0-inf) [23]: 0.668 µg·h/mL; half-life [25]: 1.8 h; solubility [27]: 0.159 mg/mL (≈ 297 µM); EC50 (Mus musculus [28]): 0.018 µM; Vd [31]: 5.04 L/kg; inhibition in vivo at 30 mg/kg (Mus musculus [32]): 84%; IC50 [33]: 0.0002 µM |
| CNc1ncc2cc(-c3cc(C(=O)Nc4cc(C(F)(F)F)ccc4OC4CCN(C)CC4)ccc3C)ccc2n1 | 0.009 µM | > 5 µM | 96% | 0.113 µM | 0.243 µM | 2.73 µM | > 5 µM | > 25 µM | 0.036 µM | 0.017 µM | 0.868 µM | > 25 µM | > 25 µM | > 25 µM | > 25 µM | -3% | >2.5 µM | > 10 µM | > 25 µM | 1.11 µM | Tmax [34]: 6 h; clearance [35]: 0.837 L/h/kg; bioavailability [36]: 55%; AUC(0-inf) [37]: 1.37 µg·h/mL; Cmax [38]: 0.121 µg/mL; half-life [39]: 6.5 h; EC50 (Mus musculus [40]): 1.4 µM; IC50 [41]: 0.017 µM; Vd [42]: 7.63 L/kg; inhibition in vivo at 30 mg/kg (Mus musculus [32]): 72%; IC50 [43]: 3.33 µM; IC50 [44]: > 25 µM; IC50 [33]: 0.0005 µM |
